The text below walks through data of US20100311726A1, “REDUCTION OF BETA-AMYLOID LEVELS BY TREATMENT WITH THE SMALL MOLECULE DIFFERENTIATION-INDUCING FACTOR” (priority 2007, published 2010).

In one series the test system is naïve CHO cells. As to the kind of experiment: Flow cytometry cell cycle distribution, naive CHO. Type of series: cell-based, Chinese Hamster. Conditions: 25 μM overnight. The method, then: Naïve and CHO-7W cells were collected by trypsin/EDTA treatment and counted using a haemocytometer. The cells (1×10^5) were deposited into 10 cm tissue culture dishes containing fresh media and grown for 24 hours prior to DIF-1 treatment (25 μM). Cells were grown in the presence of DIF-1 for approximately 20 hours. Cells harvested by the trypsin/EDTA treatment were suspended in hypotonic fluorochrome solution containing 50 ug/ml of propidium iodide, 0.1% sodium citrate, and 0.1% Triton X-100. Cells (5×10^4) for each sample were analyzed for fluorescence using the Massachusetts General Hospital cytology core. Cell cycle distribution was compared between vehicle and DIF-1 treated nave CHO cells, and CHO-7W cells. The percentage of cells in G0/G1, S-phase and G2/M represents the mean cell number±the standard deviation from at least 3 separate experiments.
To determine where in the cell cycle DIF-1 acts, we assessed the cell cycle distribution of naïve CHO cells using flow cytometry (FIG. 1B). CHO cells were incubated with DIF-1 (25 μM) for the indicated periods and then harvested by the trypsin/EDTA treatment, fixed and stained with propidium iodide (PI) and fluorescence of nuclei was measured. Histogram peaks are labeled by phases (G0/G1, S and G2/M). The percentages of cell number in the cell cycle phases are shown as means+/−S.E. of three independent experiments performed in duplicate. […]
(In flow cytometry, cells or beads pass a laser one at a time.)

The next series concerns CHO cells. As to the kind of experiment: Cell viability (trypan blue exclusion) and apoptosis (caspase-3). Type of series: cell-based. From the text:
For proliferation assays, 1×10^4 cells were deposited into 24-well plates and treated with vehicle (ethanol or DMSO) or with various amounts of DIF-1 or DIF-3 for a period of 4 days. Cells were harvested after each day by trypsin/EDTA treatment, stained with an equal volume of 0.05% Trypan blue and enumerated in triplicate twice using a haemocytometer. Dead cells are stained blue, but live cells with intact cell membranes are not coloured. Data represents the mean cell number±the standard deviation for at least 3 separate experiments.
Cells were harvested by the trypsin/EDTA treatment at the times indicated and counted with a haemocytometer.

The next series concerns APPT668A and APPT668E. Put plainly: APP processing in CHO cells expressing APP T668A or T668E. Type of series: cell-based, human. The settings on record: 30 μM. An excerpt: To assess whether or not the decrease in phosphorylated APP seen in DIF-1 treated cells contributed mechanistically to the reduction of maturation, secretion and metabolic processing of APP^751, mutants were generated using APP^751 in which T724 (APP^751 numbering) was mutated to either an alanine residue such that phosphorylation could not occur, or a glutamic acid residue that should mimic constitutive phosphorylation of APP. APP^751, Isoform B, NM_201413 was used as a template. We essentially used Stratagene's QuickChange® Site-Directed Mutagenesis Kit (Catalog #200518) to create the desired mutations as recommended by the manufacturer with the following exceptions. The APP^751 codon for threonine 724 (ACC) was mutated to code for Alanine (A) (GCC) and Glutamic Acid (E) (GAA), respectively. The following mutagenesis primers were used to create each mutation. […]
Cells were diluted and plated in multiple 10 cm tissue culture dishes and allowed to recover overnight in Dulbecco's modified Eagle's medium containing 4.5 mg/ml D-glucose supplemented with 10% fetal bovine serum and 100 units/ml penicillin, 100 μg/ml streptomycin, 2 mM L-glutamine (Sigma) at 37° C. in a 5% CO2 atmosphere. […] Protein extracts were assessed for APPT724A and APPT724E expression levels compared to naïve cells by western blot using polyclonal anti-APP C-terminal antibodies (C66). […]

The next series has as its system Dictyostelium discoideum. Conditions: Masento et al., 1988; cited from earlier work.
The next series has as its system cyclin D1. Put plainly: Cyclin D1 level by western blot. For orientation: Immunoblotting shows a protein as a band on a membrane.

Experimental for cyclin D1: Following treatment of each cell line with or without DIF-1 (1-30 μM) and/or other inhibitors, cells were lysed in cold RIPA buffer (20 mM Tris-HCl (pH 7.4) buffer containing 150 mM NaCl, 2 mM EDTA, 1% Nonidet® P-40 (NP-40), 50 mM NaF, 1 mM Na3VO4, 1 mM Na2MoO4, 10 mg/ml aprotinin, and 10 mg/ml leupeptin), supplemented with protease inhibitor tablets from Roche (Switzerland). Protein amounts were quantified in triplicate using the BCA assay from Pierce. Equal amounts of protein extracts were fractionated by sodium dodecyl sulfate polyacrylamide gel electrophoresis (SDS-PAGE) and transferred to polyvinylidene difluoride membranes. The membranes were blocked for 1 hour with 5% fat-free powdered milk or 5% BSA, incubated overnight at 4° C. with primary antibodies (1:1000 or 1:5000), washed with TTBS and then incubated at room temperature with appropriate peroxidase-conjugated secondary antibodies (1:5000). Blots were repeatedly washed with TTBS and target proteins were detected using an enhanced chemiluminescence (ECL) system (Amersham Pharmacia Biotech, New Jersey, USA) and XOMAT™ Kodak® film.
Densitometry analysis of western blot data was performed on a PC computer using QuantityOne® software obtained from Bio-Rad® Laboratories, Inc. (California, USA). Loading variations between western blot lanes were normalized according to the GAPDH signal prior to any experimental quantification. Each western blot presented in the figures is representative of at least five independent experiments to ensure reproducibility of the results unless noted otherwise.
CHO-CAB cells were treated with lithium chloride (10mM). […] To ensure that the results observed were due to proteasome inhibition, we assessed the effects of lactacystin and ALLN on cyclin D1 levels. […] The data represents that of three separate experiments.

As to `CCCCCC(=O)c1c(O)c(Cl)c(OC)c(Cl)c1O` [DIF-1, 1-[3,5-dichloro-2,6-dihydroxy-4-methoxyphenyl]-1-hexanone], the “percentage of cells in G0/G1” value in the series with naïve CHO cells is recorded as 52.6%±0.9. Also, the “cell adhesion, cell shape, apoptosis (caspase-3 activation)” value in the series with CHO cells was “did not effect cell adhesion, cell shape or induce apoptosis”. In the series on CHO cells (any of the cell lines tested), the “effect on cell viability (trypan blue exclusion)” value is listed as “no observable effect on cell viability”. Also, the “effect of DIF-1 on APP maturation and CTFs in T668A or T668E mutant APP” value in the series with APPT668A and APPT668E is “completely abolished the effect of DIF-1 on APP maturation and the reduction of both αCTF and βCTF levels”. For the same compound, the “absolute specific activity in stalk-cell differentiation” value with Dictyostelium discoideum is “sub-nanomolar range”. In the series with cyclin D1 (30 μM, 18-20 hours, CHO-CAB cells and mouse embryonic fibroblasts), the “reduction of cyclin D1 level” value is listed as roughly 82.56±0.74%. Also, in the series with cyclin D1 (CHO-7W, 30 μM DIF-1 or 250 nM DAPT), the “effect on cyclin D1 level” value is given as “markedly decreased”. The “effect on cyclin D1 accumulation, co-treatment with lactacystin or ALLN” value with cyclin D1 (CHO-CAB) is given as “inhibited the accumulation of cyclin D1”.
